Test results reported in patent US20210169113A1, “COMPOSITION FOR IMPROVING INTESTINAL FLORA” (Hosoda SHC Co., Ltd., priority 2018, published 2021).
Read-outs that look alike come from different tables or passages of the source.

Experiments:
[1] = mouse, in vivo
Experimental: (§1) Seven mice were fed ad libitum with the test diet in which 0.5% of gnemonoside A separated and purified in Example 2 was included in the high-fat diet in an amount of 5 g/mouse/day for 14 consecutive weeks, and then 10 mg of their excrement was collected. The excrement thus collected and 10 mg of the excrement collected in Test example 4 were each added with methanol (acetonitrile aqueous solution), suspended by an ultrasonic treatment, and then filtered. The filtrate was washed with hexane and passed through an ODS cartridge, and 20 μL of the elute was applied to an HPLC apparatus.

[2] = HPLC of excrement for gnetin C and glycosides (Test Example 7); conditions: 14 weeks
Experimental: as §1

Compound	Peaks in HPLC chromatogram of the excrement [1]	Fate in the intestinal tract ([2]; 0.5% in high-fat diet)	Peaks in HPLC chromatogram of the excrement ([2]; 0.5% of substance in high-fat diet, mice excrement)
Oc1ccc(/C=C/c2cc(O)c3c(c2)OC(c2ccc(O)cc2)C3c2cc(O)cc(O)c2)cc1 (stereo not drawn) [gnetin C]	peaks of gnetin C and monoglucuronic acid conjugate of gnetin C		
gnemonoside A		hydrolyzed and changed to gnetin C in the intestinal tract	peaks of gnetin C and the monoglucuronide, but not a peak of gnemonoside A, C, or D
